Results published in patent US20220033448A1, “METHODS FOR AGGREGATION OF PROTEINS” (priority 2011, published 2022).
Converted amounts (≈) assume the structure as drawn. Non-standard residues stand in square brackets, D forms with d. Residues, ends and D or L forms follow the SMILES beside them. No end group written: not given here. PEG3 = NCCOCCOCCOCCC(=O)O; AEEA = NCCOCCOCC(=O)O

Tests used:
Klebsiella pneumoniae = format: cell-based
[1] = test system: Salmonella typhi ATCC14028; format: cell-based
human erythrocytes = format: cell-based
Excerpt: The detergent Tween was used as a positive control, causing 100% lysis of RBCs.

β-Gal = β-Gal (Escherichia coli, UniProt P00722); conditions: for binding to β-Gal on blot: 250 nM biotinylated peptide, 1 h, complete BL21 cell lysate
Chain of β-Gal (P00722 2-1024 with the stated changes limits assumed): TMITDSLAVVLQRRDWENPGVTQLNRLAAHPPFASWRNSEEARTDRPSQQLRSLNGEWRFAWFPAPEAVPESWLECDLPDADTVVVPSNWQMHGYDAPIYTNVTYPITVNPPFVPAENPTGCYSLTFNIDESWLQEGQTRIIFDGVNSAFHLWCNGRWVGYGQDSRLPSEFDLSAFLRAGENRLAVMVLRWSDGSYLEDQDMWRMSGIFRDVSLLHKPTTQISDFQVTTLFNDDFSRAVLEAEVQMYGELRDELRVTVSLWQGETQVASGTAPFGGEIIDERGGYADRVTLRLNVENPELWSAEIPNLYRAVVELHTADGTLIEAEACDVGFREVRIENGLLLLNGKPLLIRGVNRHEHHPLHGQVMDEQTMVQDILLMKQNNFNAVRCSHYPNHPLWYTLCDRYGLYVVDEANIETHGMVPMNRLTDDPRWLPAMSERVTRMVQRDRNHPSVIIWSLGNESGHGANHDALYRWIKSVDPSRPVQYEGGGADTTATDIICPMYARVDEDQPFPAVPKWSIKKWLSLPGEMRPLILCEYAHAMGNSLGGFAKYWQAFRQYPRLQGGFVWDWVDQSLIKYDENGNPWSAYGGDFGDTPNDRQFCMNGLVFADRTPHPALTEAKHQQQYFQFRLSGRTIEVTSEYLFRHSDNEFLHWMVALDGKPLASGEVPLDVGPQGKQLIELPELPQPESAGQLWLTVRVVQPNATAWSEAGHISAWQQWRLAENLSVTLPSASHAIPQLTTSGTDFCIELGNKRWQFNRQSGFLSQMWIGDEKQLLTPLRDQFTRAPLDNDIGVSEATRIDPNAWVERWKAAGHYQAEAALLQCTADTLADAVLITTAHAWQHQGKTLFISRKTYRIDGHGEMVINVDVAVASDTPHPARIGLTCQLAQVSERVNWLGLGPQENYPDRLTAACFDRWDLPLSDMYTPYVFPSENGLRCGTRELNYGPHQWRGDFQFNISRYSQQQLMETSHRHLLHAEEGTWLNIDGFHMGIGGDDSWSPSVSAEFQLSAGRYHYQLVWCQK
Description: A 0.4 ml suspension of BL21 cells (OD600 nm ^˜1.2) expressing β-Gal (grown under induced conditions) was centrifuged at 5000 g for 10 min at room temperature. The supernatant was discarded and 0.8 ml of bacterial protein extraction reagent (B-PER, Thermo scientific) containing protease inhibitor was added to the bacterial pellet and vortex mixed for 30 s in order to lyse the cells. To 21 μl of the complete BL21 cell lysate 5 μl of 5× SDS sample loading buffer (Fermentas) was added and heated at 99° C. for 3 min. This mixture (26 μl per well) was loaded in a 10-well NuPage 4-12% Bis-Tris gel and the proteins were separated under denaturing conditions. The separated proteins were then transferred to a nitrocellulose membrane and blocked overnight with 1% BSA in phosphate buffer saline, 0.05% Tween 20, pH 7.4 (PBS-T) at 4° C. Each lane of the membrane was cut out and separately incubated with either rabbit anti-β-Gal antibody either biotinylated Tango 1, either biotinylated Tango 2, or the biotinylated off-target peptide or either a biotinylated Tango 2 mutant peptide.
This was followed by 3×10 min wash with PBS-T and finally rinsed in deionised water for 10 min. The membrane strip was exposed to chemiluminescence HRP substrate reagent (SuperSignal West Femto Maximum Sensitivity Substrate, Thermo Fisher Scientific) and target protein visualized using Bio-Rad ChemiDoc XRS imaging system.
A stock solution (10 μM) of each of the biotinylated peptides was prepared in 100% DMSO. The peptide stock was diluted (1/400) in 10 mM MES buffer, 100 mM Trehalose, 0.05% Tween 20, pH 5.5 to obtain a final concentration of the peptide of 25 nM. The freshly prepared peptide solution was immediately added to the membrane strip and gently agitated at room temperature. After 15 min the peptide solution was decanted and the membrane strip was washed 3×10 min with 10 mM MES buffer, 0.05% Tween 20, pH 5.5 and further processed as described herein before.

Description for B. cereus: (§1) Bacteria were grown in a shaking incubator at 37° C. and 160rpm in 50 ml BHI , using individual colonies retrieved from a fresh overnight TSA-sheep blood plate. The cultures were grown to a density of approximately 1×10^8cells/ml and then diluted to 5×10^5 cells/ml in CAMHB (Mc Farland 0.5). Each well contained 100p.I (50p.I of peptide containing MHB plus 50 μl inoculum). The final cell density was 1×10^5 to 5×10^5/ml. After addition of the cell suspension, plates were incubated at 37° C. for 18 to 24 hours. The optical density at 590 nm (OD590) of each well was measured after 5 seconds of shaking the plate using Perkin Elmer spectrophotometer (1420 Multilabel Counter Vicotr 3). […] Each well, where no growth was observed, was also plated on TSA-sheep blood agar plates, incubated at 37° C. overnight and visually inspected.
(§2) A microbroth dilution method was used with twofold serial dilutions in CAMHB (according to EMEA guidelines) was used for screening of peptide activity, with concentrations ranging from 0.3 μg/mIto 200 μg/ml.
Description for Corynebacterium: as §1, §2
Description for E. coli: as §1, §2
Description for E. faecalis: as §1, §2
Description for Nocardia asteroides: as §1, §2
Description for S. aureus: as §1, §2
Description for S. epidermidis: as §1, §2
Description for S. hominis: as §1, §2

Compound	Minimum inhibitory concentrations MIC90 (Klebsiella pneumoniae) [µg/mL]	Minimum inhibitory concentrations MIC90 [1] [µg/mL]	Minimum inhibitory concentrations MIC90 (S. epidermidis) [µg/mL]	Minimum inhibitory concentrations MIC90 (B. cereus) [µg/mL]	Minimum inhibitory concentrations MIC90 (E. coli) [µg/mL]	Minimum inhibitory concentrations MIC90 (E. faecalis) [µg/mL]	Minimum inhibitory concentrations MIC90 (S. hominis) [µg/mL]	Minimum inhibitory concentrations MIC90 (Nocardia asteroides) [µg/mL]	also measured
CC[C@@H](C)[C@@H](NC(=O)[C@H](N)CCCNC(=N)N)C(=O)N[C@H](CC(C)C)C(=O)N[C@H](CC(C)C)C(=O)NCC(=O)N[C@H](CC(C)C)C(=O)N[C@@H](C(=O)N[C@H](CCCNC(=N)N)C(=O)N[C@H](CCCNC(=N)N)C(=O)NCC(=O)N[C@H](CO)C(=O)N[C@H](CCCNC(=N)N)C(=O)N[C@@H](C(=O)N[C@H](CC(C)C)C(=O)N[C@H](CC(C)C)C(=O)NCC(=O)N[C@H](CC(C)C)C(=O)N[C@@H](C(=O)N[C@H](CCCNC(=N)N)C(=O)N[C@H](CCCNC(=N)N)C(=O)O)[C@H](C)CC)[C@H](C)CC)[C@H](C)CC [DAA] (H-[dR][dI][dL][dL]G[dL][dI][dR][dR]G[dS][dR][dI][dL][dL]G[dL][dI][dR][dR]-OH; N-terminus and C-terminus assumed)	25 (≈ 10.7 µM)	100 (≈ 42.6 µM)	1.5 (≈ 0.64 µM)	6 (≈ 2.56 µM)	25 (≈ 10.7 µM)	6 (≈ 2.56 µM)	1.5 (≈ 0.64 µM)	>200	Minimum inhibitory concentrations MIC90 (Corynebacterium): >200 µg/mL
CC[C@H](C)[C@H](NC(=O)[C@H](CC(C)C)NC(=O)CNC(=O)[C@H](CC(C)C)NC(=O)[C@H](CC(C)C)NC(=O)[C@@H](NC(=O)[C@H](CCCNC(=N)N)NC(=O)[C@H](CO)NC(=O)CNC(=O)[C@H](CCCNC(=N)N)NC(=O)[C@H](CCCNC(=N)N)NC(=O)[C@@H](NC(=O)[C@H](CC(C)C)NC(=O)CNC(=O)[C@H](CC(C)C)NC(=O)[C@H](CC(C)C)NC(=O)[C@@H](NC(=O)[C@H](CCCNC(=N)N)NC(=O)COCCOCCN)[C@@H](C)CC)[C@@H](C)CC)[C@@H](C)CC)C(=O)N[C@@H](CCCNC(=N)N)C(=O)N[C@@H](CCCNC(=N)N)C(=O)O [P2153] (H-[AEEA]RILLGLIRRGSRILLGLIRR-OH)	50 (≈ 20.1 µM)	>200	12.5 (≈ 5.02 µM)	6 (≈ 2.41 µM)	25 (≈ 10 µM)	25 (≈ 10 µM)	3 (≈ 1.2 µM)	6 (≈ 2.41 µM)	
CC[C@H](C)[C@H](NC(=O)[C@H](CC(C)C)NC(=O)CNC(=O)[C@H](CC(C)C)NC(=O)[C@H](CC(C)C)NC(=O)[C@@H](NC(=O)[C@H](CCCNC(=N)N)NC(=O)[C@H](CO)NC(=O)CNC(=O)[C@H](CCCNC(=N)N)NC(=O)[C@H](CCCNC(=N)N)NC(=O)[C@@H](NC(=O)[C@H](CC(C)C)NC(=O)CNC(=O)[C@H](CC(C)C)NC(=O)[C@H](CC(C)C)NC(=O)[C@@H](NC(=O)[C@H](CCCNC(=N)N)NC(=O)CCOCCOCCOCCN)[C@@H](C)CC)[C@@H](C)CC)[C@@H](C)CC)C(=O)N[C@@H](CCCNC(=N)N)C(=O)N[C@@H](CCCNC(=N)N)C(=O)O [P2154] (H-[PEG3]RILLGLIRRGSRILLGLIRR-OH)	100 (≈ 39.2 µM)	>200	12.5 (≈ 4.91 µM)	12.5 (≈ 4.91 µM)	50 (≈ 19.6 µM)	12.5 (≈ 4.91 µM)	3 (≈ 1.18 µM)	6 (≈ 2.35 µM)	
CC[C@H](C)[C@H](NC(=O)[C@H](CC(C)C)NC(=O)CNC(=O)[C@H](CC(C)C)NC(=O)[C@H](CC(C)C)NC(=O)[C@@H](NC(=O)[C@H](CCCNC(=N)N)NC(=O)COCCOCCNC(=O)[C@H](CCCNC(=N)N)NC(=O)[C@H](CCCNC(=N)N)NC(=O)[C@@H](NC(=O)[C@H](CC(C)C)NC(=O)CNC(=O)[C@H](CC(C)C)NC(=O)[C@H](CC(C)C)NC(=O)[C@@H](NC(=O)[C@@H](N)CCCNC(=N)N)[C@@H](C)CC)[C@@H](C)CC)[C@@H](C)CC)C(=O)N[C@@H](CCCNC(=N)N)C(=O)N[C@@H](CCCNC(=N)N)C(N)=O [P2175/P1] (H-RILLGLIRR[AEEA]RILLGLIRR-NH2)	50 (≈ 21.3 µM)	50 (≈ 21.3 µM)	12.5 (≈ 5.33 µM)	12.5 (≈ 5.33 µM)	25 (≈ 10.7 µM)	12.5 (≈ 5.33 µM)	3 (≈ 1.28 µM)	3 (≈ 1.28 µM)	Minimum inhibitory concentrations MIC90 (Corynebacterium): >200 µg/mL
CC[C@H](C)[C@H](NC(=O)[C@H](CC(C)C)NC(=O)CNC(=O)[C@H](CC(C)C)NC(=O)[C@H](CC(C)C)NC(=O)[C@@H](NC(=O)[C@H](CCCNC(=N)N)NC(=O)COCCOCCNC(=O)[C@H](CCCNC(=N)N)NC(=O)[C@H](CCCNC(=N)N)NC(=O)[C@@H](NC(=O)[C@H](CC(C)C)NC(=O)CNC(=O)[C@H](CC(C)C)NC(=O)[C@H](CC(C)C)NC(=O)[C@@H](NC(=O)[C@@H](N)CCCNC(=N)N)[C@@H](C)CC)[C@@H](C)CC)[C@@H](C)CC)C(=O)N[C@@H](CCCNC(=N)N)C(=O)N[C@@H](CCCNC(=N)N)C(N)=O [P2175/P2] (H-RILLGLIRR[AEEA]RILLGLIRR-NH2)	100 (≈ 42.6 µM)	25 (≈ 10.7 µM)	6 (≈ 2.56 µM)	12.5 (≈ 5.33 µM)	50 (≈ 21.3 µM)	6 (≈ 2.56 µM)	1.5 (≈ 0.64 µM)	6 (≈ 2.56 µM)	Minimum inhibitory concentrations MIC90 (Corynebacterium): >200 µg/mL
Ac-RILLGLIRRGSRILLGLIRR-NH2 [P2170/P1]	>200	100	6	6	25	12.5	3	6	Minimum inhibitory concentrations MIC90 (S. aureus): 12.5 µg/mL; Minimum inhibitory concentrations MIC90 (Corynebacterium): >200 µg/mL
Ac-RILLGLIRRGSRILLGLIRR-NH2 [P2170/P2]	>200	100	12.5	6	25	12.5	3	3	Minimum inhibitory concentrations MIC90 (S. aureus): 12.5 µg/mL; Minimum inhibitory concentrations MIC90 (Corynebacterium): 100 µg/mL
H-RILLGLIRRGSRILLGLIRR-OH [P2151]	25	100	12.5	12.5	25	25	3	12.5	
RFFIGLSRRGSRIQAYLYRR [Hit50A]									MIC values against MRSA 326 (S. aureus): 50 µg/mL; MIC values against S.aureus ATCC 29213 (S. aureus): 100 µg/mL; MIC values against B.cereus ATCC (B. cereus): 50 µg/mL
RLFNFLKRGSRLFNFLKR [C29/Hit11]									hemolytic activity (human erythrocytes): no significant hemolytic activity at clinically relevant concentrations; MIC values against MRSA 326 (S. aureus): 12.5 µg/mL; MIC values against S.aureus ATCC 29213 (S. aureus): 12.5 to 25 µg/mL; MIC values against B.cereus ATCC (B. cereus): 6 to 12.5 µg/mL; MIC values against Corynebacterium (Corynebacterium): 6 µg/mL
RRIIGIIARPPRVLVTLLRR [mtop_22]									MIC value (S. aureus): <200 µg/mL; MIC value (S. epidermidis): 50 µg/mL
RRIILFILRPPRLILFLGRR [mtop_1]									MIC value (S. aureus): 200 µg/mL; MIC value (S. epidermidis): 50 µg/mL
RRILGLIARPPRIAFVILRR [mtop_18]									MIC value (S. aureus): <200 µg/mL; MIC value (S. epidermidis): 50 µg/mL
RRILLGLIRPPRTIIGLVRR [mtop_11]									MIC value (S. aureus): >200 µg/mL; MIC value (S. epidermidis): 12.5 µg/mL
RRILLLIARPPRILLGAIRR [mtop_12]									MIC value (S. aureus): >200 µg/mL; MIC value (S. epidermidis): 12.5 µg/mL
RRLLGLIIRPPRAIALTLRR [mtop_17]									MIC value (S. aureus): 50 µg/mL; MIC value (S. epidermidis): 100 µg/mL
RRWVSMLLRRGSRWVSMLLRR [Hit14]									MIC values against S.epidermidis ATCC 12228 (S. epidermidis): 50 µg/mL; MIC values against B.cereus ATCC (B. cereus): 100 µg/mL
RWVSMLLRRGSRVGYVIARR [Hit37]									MIC values against MRSA 326 (S. aureus): 100 µg/mL; MIC values against S.aureus ATCC 29213 (S. aureus): 100 µg/mL; MIC values against B.cereus ATCC (B. cereus): >100 µg/mL
RWVSMLLRRGSRWVSMLLRR [Hit1]									HD50 (concentration at which 50% of red blood cells are lysed) (human erythrocytes): 25 to 50 µg/mL; MIC (S. aureus): 3 µg/mL; MIC in presence of 50% FBS (S. aureus): 25 µg/mL; MIC values against MRSA 326 (S. aureus): 6 µg/mL; MIC values against B.cereus ATCC (B. cereus): 6 µg/mL; MIC values against Corynebacterium (Corynebacterium): 3 µg/mL
b~DVIIWSLGNR~b [Complimentary charge]									specificity of binding to β-gal versus serum proteins (β-Gal; competitive PepBlot, 7% clinical serum in adjacent lane, 25 nM, 15 min): does not cross react with proteins in the serum
b~RLAVVLQR [Tango 1]									binding to β-Gal on blot (β-Gal): weaker binding
b~RPITVNPPFR [Off-Target]									binding to β-Gal on blot (β-Gal): no interaction
b~RVIIWSLGNR [Tango 2]									binding to β-Gal on blot (β-Gal): strong affinity to the β-Gal
b~RVIPWSLGNR [Tango 2 Mut_2]									binding to β-Gal on blot (β-Gal): still bind efficiently to β-Gal
b~RVPIWSLGNR [Tango 2 Mut_1]									binding to β-Gal on blot (β-Gal): still bind efficiently to β-Gal
